How the values were obtained:
[1] = test system: HSV-1TK+ (Strain McCrae of type 1 herpes); test: Inhibition of viral CPE, HSV-1TK+ in MA-104 cells; type: cell-based
Experimental: One herpes virus strain employed was Strain McCrae of type 1 herpes (thymidine kinase positive virus) (HSV-1TK^+). This strain was prepared and titered in MA-104 cells and frozen at -90° C. until use. Also used were strain HF (HSV-1TK^-). Strain E194 (HSV-2), NJB strain (MCMV), strain AD169 (HCMV).
(§1) Continuous passaged monkey kidney (MA-104) cells were used for testing of herpes-type virus, with growth medium consisting of Minimum Essential Medium (MEM) supplemented with 0.1% NaHCO3 and […] gentamicin.
(§2) To a 96 well microtiter plate containing an established 24 hour monolayer of cells from which the medium has been decanted was added 0.1 ml of varying (one-half log10) concentrations of test compound, which incubated on the cell 15 minutes, after which 0.1 ml of virus in a concentration of 320 cell culture 50% infectious doses (CCID50)/0.1 ml was added. The plate was covered with plastic wrap and incubated at 37° C. Included with the test were toxicity controls (each concentration of compound+test medium in place of virus), virus controls (virus+test medium in place of compound) and cell controls (test medium in place of compound and virus). The cells were examined microscopically after 72 hours for evidence of cytotoxicity and for viral cytopathic effect (CPE). Vidarabine was run on the same plate in parallel. […] were added to the medium at a concentration of 2000 μg/ml for use as a positive control.
Antiviral activity was determined by observation of inhibition of viral CPE. This activity was expressed by ED50, defined as that dose range of compound causing 50% CPE inhibition.
A Virus Rating (VR) was also determined. VR is a numerical expression of antiviral activity, weighted to take into account any cytotoxicity observed, as discussed by Sidewell et al, Appl Microbiol (1971) 22:797. Generally, a VR of 0.1-0.4 indicates slight antiviral effect, 0.5-0.9 indicates moderate antiviral effect, and ≥1.0 indicates strong antiviral effect.

MA-104 cells = test: Cytotoxicity controls (maximum tolerated dose) in MA-104 cells; type: cell-based, monkey; conditions: Table 3 Test 2
Experimental: as §1, §2
*Maximum tolerated dose, μg/ml.

For `CCOP(=O)(O)CCCOCn1cnc2c(=O)[nH]c(N)nc21` [Compound 2, 9(3'-ethylphosphono-1'-propyloxymethyl)guanine], the “activity against HSV-1TK+ relative to vidarabine” value [1] was “comparable to that of vidarabine”, the EC50 ([1]; MA104, 72 h, read-out: ED50) was < 1 µg/mL and the inhibition at 1000 µg/mL ([1]; MA104, read-out: CPE Inhib., Table 3 Test 1, 1000 μg/ml) was 100%. The “VR (Virus Rating)” value ([1]; Table 3 Test 1, HSV-1TK+) was > 2.0, the ED50 ([1]; Table 3 Test 2, HSV-1TK+) was < 1.0 µg/mL and the “VR (Virus Rating)” value ([1]; Table 3 Test 2, HSV-1TK+) was > 1.4. The “MTD (Maximum tolerated dose)” value (MA-104 cells) was > 1000 µg/mL.

From patent US5047533A, “Acyclic purine phosphonate nucleotide analogs” (SRI International, priority 1990, dated 1991)
